{"source": "patent US20080160083A1", "about": "“COMPOSITION AND METHOD FOR TREATMENT OF PREMENSTRUAL SYMPTOMS” (priority 2007, published 2008)", "origin": "cited, not measured here", "key": {"[1]": {"details": "all adults; Institute of Medicine 1998"}, "[2]": {"details": "women taking daily vitamin B6 supplements for PMS whose blood levels of B6 were above normal; Dalton, Lancet 1985"}}}
{"molecule": "Cc1ncc(CO)c(CO)c1O", "note": "[vitamin B6, 4,5-bis(hydroxymethyl)-2-methylpyridin-3-ol]", "values": [{"measurement": "upper tolerable intake level (UL)", "setting": "[1]", "result": 100, "unit": "mg per day"}, {"measurement": "neuropathy present (number of women)", "setting": "[2]", "result": "23 of 58"}]}
